PubChem BioAssay (NCI)
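Protocol summary: plate cells (96-well), add compound at 5 concentrations, incubate 48 h, interpolate endpoints linearly. At the GI50, growth is halved. The concentration for full growth arrest is given as TGI.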

Legend:
Assay in all cases: growth of human tumour cells (NCI), 48 h
[1] = test system: HS 578T breast
[2] = test system: SK-MEL-5 melanoma
[3] = test system: OVCAR-3 ovarian
[4] = test system: NCI/ADR-RES ovarian
[5] = test system: UO-31 renal
[6] = test system: RPMI-8226 leukemia
[7] = test system: A549 NSCLC
[8] = test system: ACHN renal
[9] = test system: SK-MEL-2 melanoma
[10] = test system: SF-539 CNS

c1ccc(CCN2CCCCCC2)nc1
TGI [1]: > 100 µM | TGI [2]: > 100 µM | TGI [3]: > 100 µM | TGI [4]: > 100 µM | TGI [5]: > 100 µM | TGI [6]: > 100 µM | TGI [7]: > 100 µM | TGI [8]: > 100 µM | TGI [9]: > 100 µM

CCOC(=O)c1ccc(C(=O)C(C(C)=O)C(=O)OC(C)(C)C)n1C (stereo unspecified)
TGI [1]: > 100 µM | TGI [2]: > 100 µM | TGI [3]: > 100 µM | TGI [4]: > 100 µM | TGI [5]: > 100 µM | TGI [6]: > 100 µM | TGI [7]: > 100 µM | TGI [8]: > 100 µM | TGI [9]: > 100 µM

CCCCC[C@@H]1OCO[C@@]2(C)/C=C(C)/C=C/C(=O)O[C@H]([C@@H](C)[C@@H](O)[C@H](C)[C@@]3(O)C[C@@H](O[C@H]4C[C@@H](O)[C@H](O)[C@@H](C)O4)[C@H](C)[C@@H](C)O3)[C@@H](OC)/C=C/C=C(\C)C[C@@H]1[C@@H]2O (stereo in doubt)
TGI [1]: 50 µM | TGI [2]: < 0.005 µM | TGI [3]: 2.46 µM | TGI [4]: 15.8 µM | TGI [6]: 50 µM | TGI [7]: 0.733 µM | TGI [8]: 1.33 µM | TGI [10]: 3.23 µM | TGI [9]: < 0.005 µM

CC(CCC(=O)O)[C@H]1CCC2[C@H]3C(CC[C@@]21C)[C@@]1(C)CCC(O)C[C@H]1C[C@@H]3O (stereo partly specified)
TGI [4]: > 100 µM | TGI [5]: > 100 µM | TGI [6]: > 100 µM | TGI [7]: > 100 µM | TGI [8]: > 100 µM | TGI [10]: > 100 µM | TGI [9]: > 100 µM

CC(C)(C)N=C1CC(C)(C)c2ccccc2C(=Nc2ccccc2)S1
TGI [2]: 59.2 µM | TGI [3]: > 100 µM | TGI [5]: > 100 µM | TGI [6]: 41.5 µM | TGI [7]: > 100 µM | TGI [8]: > 100 µM | TGI [10]: > 100 µM | TGI [9]: 99 µM

Cc1c2c3cc(O)ccc3nc-2n(C)c2ccccc12
TGI [1]: 8.21 µM | TGI [2]: 2.29 µM | TGI [3]: 6.07 µM | TGI [4]: 3.4 µM | TGI [5]: 2.72 µM | TGI [6]: > 100 µM | TGI [7]: 3.48 µM | TGI [8]: 10.3 µM | TGI [10]: 4.98 µM

OC(c1ccc(Cl)cc1)(c1ccc(Cl)cc1)C(O)(c1ccc(Cl)cc1)c1ccc(Cl)cc1
GI50 [5]: 2.89 µM | TGI [5]: > 100 µM | GI50 [6]: 3.27 µM | TGI [6]: > 100 µM

COC(=O)c1sc(=S)sc1SCc1ccccc1CSc1sc(=S)sc1C(=O)OC
TGI [1]: > 100 µM | TGI [2]: > 100 µM | TGI [3]: > 100 µM | TGI [4]: > 100 µM | TGI [5]: > 100 µM | TGI [7]: > 100 µM | TGI [8]: > 100 µM | TGI [9]: > 100 µM

COc1ccc(/C=C2\Cc3ccccc3C2=O)cc1OC
TGI [2]: > 100 µM | TGI [3]: > 100 µM | TGI [5]: > 100 µM | TGI [6]: > 100 µM | TGI [7]: > 100 µM | TGI [8]: > 100 µM | TGI [9]: > 100 µM

CCN(CC)CCO/N=C1\CC[C@H]2[C@@H]3CC=C4C[C@@H](O)CC[C@]4(C)[C@H]3CC[C@]12C
TGI [1]: > 100 µM | TGI [2]: 25.4 µM | TGI [3]: 43.8 µM | TGI [4]: > 100 µM | TGI [5]: 32.1 µM | TGI [6]: 47.6 µM | TGI [8]: > 100 µM | TGI [10]: 27.6 µM | TGI [9]: 48.4 µM

CC(NC(=O)/C(=C/c1ccccc1O)NC(=O)c1ccccc1)C(=O)O (stereo unspecified)
TGI [1]: 38.2 µM | TGI [2]: > 100 µM | TGI [4]: 33.4 µM | TGI [5]: 34.6 µM | TGI [6]: > 100 µM | TGI [7]: > 100 µM | TGI [8]: 33.2 µM | TGI [10]: 46.4 µM

COC(=O)[C@H](C)N1C(=O)N[C@@H](C(C)C)C1=O
TGI [2]: > 100 µM | TGI [3]: > 100 µM | TGI [4]: > 100 µM | TGI [5]: > 100 µM | TGI [6]: > 100 µM | TGI [7]: > 100 µM | TGI [8]: > 100 µM | TGI [10]: > 100 µM | TGI [9]: > 100 µM
